{
  "source": "patent US20260224588A1",
  "about": "“BENZODIAZEPINONE-DERIVED INHIBITORS OF EGFR AND HER2” (The Research Foundation for the State University of New York, priority 2023, published 2026)",
  "assay_in_all_cases": "KINOMEscan",
  "assay_type_in_all_cases": "binding",
  "settings_in_all_cases": "1 μM of compound 4; read-out: POC",
  "key": {"[1]": {"target": "T1, ABL1(Q252H)-nonphosphorylated (Homo sapiens, UniProt P00519, Q252H)", "T1 construct": "purchased Eurofins DiscoverX Corporation"}, "ACVRL1": {"target": "ACVRL1 (Homo sapiens, UniProt P37023)"}, "ADCK3": {"target": "ADCK3 (Homo sapiens, UniProt Q8NI60)", "sequence (Q8NI60 163-647)": "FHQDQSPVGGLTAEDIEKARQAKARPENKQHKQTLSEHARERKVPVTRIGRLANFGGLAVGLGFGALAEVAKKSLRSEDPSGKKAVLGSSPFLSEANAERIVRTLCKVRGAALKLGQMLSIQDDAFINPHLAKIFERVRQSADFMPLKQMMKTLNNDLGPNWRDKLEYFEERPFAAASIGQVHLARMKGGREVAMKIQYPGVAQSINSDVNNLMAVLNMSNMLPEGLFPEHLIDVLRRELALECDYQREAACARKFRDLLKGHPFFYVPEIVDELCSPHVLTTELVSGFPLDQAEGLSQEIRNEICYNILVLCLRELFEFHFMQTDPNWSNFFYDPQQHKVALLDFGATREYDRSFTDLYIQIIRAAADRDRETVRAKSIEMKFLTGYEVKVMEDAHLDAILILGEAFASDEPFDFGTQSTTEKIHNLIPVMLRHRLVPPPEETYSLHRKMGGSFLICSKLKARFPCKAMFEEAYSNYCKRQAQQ"}, "ADCK4": {"target": "ADCK4 (Homo sapiens, UniProt Q96D53)"}, "BMPR2": {"target": "BMPR2 (Homo sapiens, UniProt Q13873)"}, "BRSK2": {"target": "BRSK2 (Homo sapiens, UniProt Q8IWQ3)"}, "BUB1": {"target": "BUB1 (Homo sapiens, UniProt O43683)"}, "CAMK1D": {"target": "CAMK1D (Homo sapiens, UniProt Q8IU85)", "sequence (Q8IU85 whole entry)": "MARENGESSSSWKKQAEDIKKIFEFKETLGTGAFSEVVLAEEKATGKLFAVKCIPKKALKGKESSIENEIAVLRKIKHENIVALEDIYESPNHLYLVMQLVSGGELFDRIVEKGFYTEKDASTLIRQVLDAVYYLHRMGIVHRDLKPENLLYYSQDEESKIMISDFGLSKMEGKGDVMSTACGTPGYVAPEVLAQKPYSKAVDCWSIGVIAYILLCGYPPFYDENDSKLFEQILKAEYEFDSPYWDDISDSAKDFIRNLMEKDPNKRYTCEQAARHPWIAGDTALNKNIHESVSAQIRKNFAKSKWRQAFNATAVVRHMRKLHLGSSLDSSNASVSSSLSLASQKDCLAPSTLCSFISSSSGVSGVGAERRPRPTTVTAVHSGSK"}, "CAMKK2": {"target": "CAMKK2 (Homo sapiens, UniProt Q96RR4)"}, "CDK9": {"target": "CDK9 (Homo sapiens, UniProt P50750)"}, "CIT": {"target": "CIT (Homo sapiens, UniProt O14578)"}, "DYRK1A": {"target": "DYRK1A (Homo sapiens, UniProt Q13627)"}, "EGFR(L858R + T790M)": {"target": "T2, EGFR(L858R + T790M) (Homo sapiens, UniProt P00533, L858R/T790M)", "T2 construct": "purchased Eurofins DiscoverX (KINOMEscan service)"}, "EPHB2": {"target": "T3, EPHB2 (Homo sapiens, UniProt P29323)", "T3 construct": "purchased Eurofins DiscoverX (KINOMEscan service)", "T3 sequence (P29323 19-1055)": "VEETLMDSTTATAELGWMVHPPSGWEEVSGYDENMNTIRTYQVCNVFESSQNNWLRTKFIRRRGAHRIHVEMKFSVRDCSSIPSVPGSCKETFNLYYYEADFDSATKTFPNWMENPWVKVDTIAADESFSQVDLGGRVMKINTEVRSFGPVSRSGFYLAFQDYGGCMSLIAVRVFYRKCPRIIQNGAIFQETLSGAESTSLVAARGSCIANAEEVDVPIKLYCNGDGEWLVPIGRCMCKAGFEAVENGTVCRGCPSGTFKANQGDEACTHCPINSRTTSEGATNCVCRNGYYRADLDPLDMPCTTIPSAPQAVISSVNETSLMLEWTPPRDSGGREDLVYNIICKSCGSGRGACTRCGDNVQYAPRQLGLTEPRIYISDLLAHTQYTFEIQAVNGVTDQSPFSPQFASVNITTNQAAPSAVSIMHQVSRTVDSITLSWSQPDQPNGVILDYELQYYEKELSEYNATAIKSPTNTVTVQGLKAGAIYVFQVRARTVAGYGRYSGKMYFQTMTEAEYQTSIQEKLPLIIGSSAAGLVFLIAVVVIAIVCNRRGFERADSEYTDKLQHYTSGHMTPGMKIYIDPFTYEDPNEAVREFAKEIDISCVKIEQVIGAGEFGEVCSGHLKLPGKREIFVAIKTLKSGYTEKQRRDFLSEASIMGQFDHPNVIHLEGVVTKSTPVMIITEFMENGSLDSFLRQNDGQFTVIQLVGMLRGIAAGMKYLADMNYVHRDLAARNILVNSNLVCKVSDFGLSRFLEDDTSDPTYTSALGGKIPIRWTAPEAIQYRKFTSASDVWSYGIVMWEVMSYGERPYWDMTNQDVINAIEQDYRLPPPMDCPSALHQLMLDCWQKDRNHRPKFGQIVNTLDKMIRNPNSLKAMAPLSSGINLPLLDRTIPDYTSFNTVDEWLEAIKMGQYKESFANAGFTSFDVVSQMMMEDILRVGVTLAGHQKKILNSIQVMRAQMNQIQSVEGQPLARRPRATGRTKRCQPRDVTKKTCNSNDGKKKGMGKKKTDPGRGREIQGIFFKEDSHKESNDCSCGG"}, "GAK": {"target": "T4, GAK (Homo sapiens, UniProt O14976)", "T4 construct": "purchased Eurofins DiscoverX Corporation"}, "GCN2(Kin.Dom.2 + S808G)": {"target": "T5, GCN2(Kin.Dom.2 + S808G) (Homo sapiens, UniProt Q9P2K8, S808G)", "T5 construct": "GCN2(Kin.Dom.2 + S808G); purchased Eurofins DiscoverX Corporation"}, "KIT(L576P)": {"target": "KIT(L576P) (Homo sapiens, UniProt P10721, L576P)"}, "MARK3": {"target": "MARK3 (Homo sapiens, UniProt P27448)"}, "MAST1": {"target": "MAST1 (Homo sapiens, UniProt Q9Y2H9)"}, "MERTK": {"target": "MERTK (Homo sapiens, UniProt Q12866)"}, "MLCK": {"target": "MLCK (Homo sapiens, UniProt Q32MK0)", "sequence (Q32MK0 whole entry)": "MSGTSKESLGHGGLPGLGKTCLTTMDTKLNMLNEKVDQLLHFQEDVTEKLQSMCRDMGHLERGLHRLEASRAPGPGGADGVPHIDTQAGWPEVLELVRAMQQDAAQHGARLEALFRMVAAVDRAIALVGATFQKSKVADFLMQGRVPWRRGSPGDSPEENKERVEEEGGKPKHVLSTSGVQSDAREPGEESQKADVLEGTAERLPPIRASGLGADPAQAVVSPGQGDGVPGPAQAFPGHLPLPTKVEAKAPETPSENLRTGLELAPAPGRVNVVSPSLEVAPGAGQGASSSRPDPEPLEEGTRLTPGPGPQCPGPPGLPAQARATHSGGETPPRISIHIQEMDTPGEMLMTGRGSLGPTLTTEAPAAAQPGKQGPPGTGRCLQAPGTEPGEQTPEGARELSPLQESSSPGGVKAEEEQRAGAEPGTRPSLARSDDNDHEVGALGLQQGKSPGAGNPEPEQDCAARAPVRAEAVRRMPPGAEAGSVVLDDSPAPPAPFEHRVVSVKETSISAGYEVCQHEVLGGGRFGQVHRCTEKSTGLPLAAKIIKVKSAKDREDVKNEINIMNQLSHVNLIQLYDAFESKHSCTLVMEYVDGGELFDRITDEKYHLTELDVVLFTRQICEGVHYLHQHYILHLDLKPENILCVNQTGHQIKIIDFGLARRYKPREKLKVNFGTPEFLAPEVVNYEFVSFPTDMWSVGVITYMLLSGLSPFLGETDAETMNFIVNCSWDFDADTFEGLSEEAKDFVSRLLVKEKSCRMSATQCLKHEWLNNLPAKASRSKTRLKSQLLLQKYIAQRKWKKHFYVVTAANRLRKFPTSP"}, "MST1": {"target": "MST1 (Homo sapiens, UniProt Q13043)"}, "NEK11": {"target": "NEK11 (Homo sapiens, UniProt Q8NG66)"}, "PCTK1": {"target": "T6, PCTK1 (Homo sapiens, UniProt Q00536)", "T6 construct": "purchased Eurofins DiscoverX Corporation (KINOMEscan)"}, "PFPK5(P. falciparum)": {"target": "T7, PFPK5(P. falciparum) (Plasmodium falciparum, UniProt P61075)", "T7 construct": "purchased Eurofins DiscoverX Corporation (KINOMEscan)"}, "PHKG2": {"target": "PHKG2 (Homo sapiens, UniProt P15735)"}, "PIK3CB": {"target": "PIK3CB (Homo sapiens, UniProt P42338)"}, "PIM1": {"target": "PIM1 (Homo sapiens, UniProt P11309)"}, "PIM3": {"target": "PIM3 (Homo sapiens, UniProt Q86V86)"}, "RAF1": {"target": "T8, RAF1 (Homo sapiens, UniProt P04049)", "T8 construct": "purchased Eurofins DiscoverX Corporation (KINOMEscan screening service)"}, "[2]": {"target": "T9, RPS6KA4(Kin.Dom.1-N-terminal) (Homo sapiens, UniProt O75676)", "T9 construct": "RPS6KA4(Kin.Dom.1-N-terminal); purchased Eurofins DiscoverX Corporation (KINOMEscan screening service)", "T9 sequence (O75676 33-301 limits assumed)": "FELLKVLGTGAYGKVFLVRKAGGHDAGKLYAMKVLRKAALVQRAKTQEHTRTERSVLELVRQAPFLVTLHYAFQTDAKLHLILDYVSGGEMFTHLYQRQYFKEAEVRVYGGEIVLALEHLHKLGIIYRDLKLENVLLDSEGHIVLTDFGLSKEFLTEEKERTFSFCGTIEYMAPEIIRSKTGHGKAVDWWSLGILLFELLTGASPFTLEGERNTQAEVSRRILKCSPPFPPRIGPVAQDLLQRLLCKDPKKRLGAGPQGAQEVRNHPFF"}, "[3]": {"target": "T10, RSK4(Kin.Dom.2-C-terminal) (Homo sapiens, UniProt Q9UK32)", "T10 construct": "RSK4(Kin.Dom.2-C-terminal); purchased Eurofins DiscoverX (KINOMEscan service)"}, "TEC": {"target": "T11, TEC (Homo sapiens, UniProt P42680)", "T11 construct": "purchased Eurofins DiscoverX Corporation", "T11 sequence (P42680 whole entry)": "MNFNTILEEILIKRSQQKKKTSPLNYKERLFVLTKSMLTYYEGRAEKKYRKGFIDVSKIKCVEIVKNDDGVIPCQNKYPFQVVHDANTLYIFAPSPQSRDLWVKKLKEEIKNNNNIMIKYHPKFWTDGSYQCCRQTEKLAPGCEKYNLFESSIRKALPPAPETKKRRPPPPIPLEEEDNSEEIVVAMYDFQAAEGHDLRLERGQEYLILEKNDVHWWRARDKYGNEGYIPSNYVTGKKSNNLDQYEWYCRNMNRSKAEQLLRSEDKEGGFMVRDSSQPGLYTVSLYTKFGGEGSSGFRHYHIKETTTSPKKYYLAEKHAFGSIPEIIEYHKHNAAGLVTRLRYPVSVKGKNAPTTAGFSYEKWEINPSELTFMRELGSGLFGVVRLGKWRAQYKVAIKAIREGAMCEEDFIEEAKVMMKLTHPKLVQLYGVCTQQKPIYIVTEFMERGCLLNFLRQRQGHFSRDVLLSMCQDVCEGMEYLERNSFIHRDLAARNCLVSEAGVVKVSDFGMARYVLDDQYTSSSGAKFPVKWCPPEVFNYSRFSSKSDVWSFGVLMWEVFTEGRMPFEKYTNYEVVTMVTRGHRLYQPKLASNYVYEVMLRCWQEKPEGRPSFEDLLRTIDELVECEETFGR"}, "TNNI3K": {"target": "T12, TNNI3K (Homo sapiens, UniProt Q59H18)", "T12 construct": "purchased Eurofins DiscoverX Corporation", "T12 sequence (Q59H18 whole entry)": "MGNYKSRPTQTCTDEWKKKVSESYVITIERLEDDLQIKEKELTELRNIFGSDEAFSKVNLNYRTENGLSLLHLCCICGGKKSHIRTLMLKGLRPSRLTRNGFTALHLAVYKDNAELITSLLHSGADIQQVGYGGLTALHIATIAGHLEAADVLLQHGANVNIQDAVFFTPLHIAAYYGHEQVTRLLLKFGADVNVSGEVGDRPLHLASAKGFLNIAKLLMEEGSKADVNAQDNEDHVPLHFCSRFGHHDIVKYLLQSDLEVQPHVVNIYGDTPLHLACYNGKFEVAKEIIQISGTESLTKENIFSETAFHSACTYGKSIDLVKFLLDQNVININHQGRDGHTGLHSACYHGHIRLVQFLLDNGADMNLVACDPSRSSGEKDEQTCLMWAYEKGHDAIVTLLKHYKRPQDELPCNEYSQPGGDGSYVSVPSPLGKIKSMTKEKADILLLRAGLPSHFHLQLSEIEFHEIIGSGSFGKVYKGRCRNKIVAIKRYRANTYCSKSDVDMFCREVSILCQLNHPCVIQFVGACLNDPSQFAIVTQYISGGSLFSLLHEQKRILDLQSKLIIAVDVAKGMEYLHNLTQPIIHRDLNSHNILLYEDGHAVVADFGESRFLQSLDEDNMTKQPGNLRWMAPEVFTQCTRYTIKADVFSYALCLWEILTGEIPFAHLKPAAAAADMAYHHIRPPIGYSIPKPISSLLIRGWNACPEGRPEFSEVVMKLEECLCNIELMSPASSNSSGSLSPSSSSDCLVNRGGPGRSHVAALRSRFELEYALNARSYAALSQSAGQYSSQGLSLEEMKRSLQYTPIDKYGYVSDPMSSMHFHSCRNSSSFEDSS"}, "TSSK1B": {"target": "T13, TSSK1B (Homo sapiens, UniProt Q9BXA7)", "T13 construct": "purchased Eurofins DiscoverX Corporation", "T13 sequence (Q9BXA7 whole entry)": "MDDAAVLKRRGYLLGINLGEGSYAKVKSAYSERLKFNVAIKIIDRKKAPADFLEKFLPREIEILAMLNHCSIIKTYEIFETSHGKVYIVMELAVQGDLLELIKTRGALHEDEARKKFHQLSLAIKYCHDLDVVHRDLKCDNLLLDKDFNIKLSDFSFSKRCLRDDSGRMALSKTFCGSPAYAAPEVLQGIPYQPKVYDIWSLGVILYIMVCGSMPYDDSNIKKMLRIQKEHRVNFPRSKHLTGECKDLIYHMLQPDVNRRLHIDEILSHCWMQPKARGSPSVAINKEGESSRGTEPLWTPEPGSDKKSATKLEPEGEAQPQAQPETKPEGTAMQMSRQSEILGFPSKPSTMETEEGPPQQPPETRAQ"}, "[4]": {"target": "T14, TYK2(JH2domain-pseudokinase) (Homo sapiens, UniProt P29597)", "T14 construct": "TYK2(JH2domain-pseudokinase); purchased Eurofins DiscoverX"}, "VEGFR2": {"target": "T15, VEGFR2 (Homo sapiens, UniProt P35968)", "T15 construct": "purchased Eurofins DiscoverX"}},
  "data": [
    {"smiles": "C=CC(=O)Nc1ccc(OC)c(Nc2cc(-c3[nH]c(CC)nc3-c3cccc(NC(=O)c4cccc5c4NC(=O)c4ccccc4N5)c3)ccn2)c1", "note": "[Compound 4, N-(3-(5-(2-((5-Acrylamido-2-methoxyphenyl)amino)pyridin-4-yl)-2-ethyl-1H-imidazol-4-yl)phenyl)-11-oxo-10,11-dihydro-5H-dibenzo[b,e][1,4]diazepine-9-carboxamide]", "values": [
      {"measurement": "remaining binding at 1 µM", "setting": "[1]", "value": 100, "unit": "%"},
      {"measurement": "remaining binding at 1 µM", "setting": "ACVRL1", "value": 75, "unit": "%"},
      {"measurement": "remaining binding at 1 µM", "setting": "ADCK3", "value": 100, "unit": "%"},
      {"measurement": "remaining binding at 1 µM", "setting": "ADCK4", "value": 85, "unit": "%"},
      {"measurement": "remaining binding at 1 µM", "setting": "BMPR2", "value": 88, "unit": "%"},
      {"measurement": "remaining binding at 1 µM", "setting": "BRSK2", "value": 93, "unit": "%"},
      {"measurement": "remaining binding at 1 µM", "setting": "BUB1", "value": 100, "unit": "%"},
      {"measurement": "remaining binding at 1 µM", "setting": "CAMK1D", "value": 100, "unit": "%"},
      {"measurement": "remaining binding at 1 µM", "setting": "CAMKK2", "value": 95, "unit": "%"},
      {"measurement": "remaining binding at 1 µM", "setting": "CDK9", "value": 100, "unit": "%"},
      {"measurement": "remaining binding at 1 µM", "setting": "CIT", "value": 6.3, "unit": "%"},
      {"measurement": "remaining binding at 1 µM", "setting": "DYRK1A", "value": 100, "unit": "%"},
      {"measurement": "remaining binding at 1 µM", "setting": "EGFR(L858R + T790M)", "value": 8.3, "unit": "%"},
      {"measurement": "remaining binding at 1 µM", "setting": "EPHB2", "value": 100, "unit": "%"},
      {"measurement": "remaining binding at 1 µM", "setting": "GAK", "value": 16, "unit": "%"},
      {"measurement": "remaining binding at 1 µM", "setting": "GCN2(Kin.Dom.2 + S808G)", "value": 100, "unit": "%"},
      {"measurement": "remaining binding at 1 µM", "setting": "KIT(L576P)", "value": 84, "unit": "%"},
      {"measurement": "remaining binding at 1 µM", "setting": "MARK3", "value": 100, "unit": "%"},
      {"measurement": "remaining binding at 1 µM", "setting": "MAST1", "value": 100, "unit": "%"},
      {"measurement": "remaining binding at 1 µM", "setting": "MERTK", "value": 83, "unit": "%"},
      {"measurement": "remaining binding at 1 µM", "setting": "MLCK", "value": 86, "unit": "%"},
      {"measurement": "remaining binding at 1 µM", "setting": "MST1", "value": 6, "unit": "%"},
      {"measurement": "remaining binding at 1 µM", "setting": "NEK11", "value": 100, "unit": "%"},
      {"measurement": "remaining binding at 1 µM", "setting": "PCTK1", "value": 100, "unit": "%"},
      {"measurement": "remaining binding at 1 µM", "setting": "PFPK5(P. falciparum)", "value": 100, "unit": "%"},
      {"measurement": "remaining binding at 1 µM", "setting": "PHKG2", "value": 73, "unit": "%"},
      {"measurement": "remaining binding at 1 µM", "setting": "PIK3CB", "value": 90, "unit": "%"},
      {"measurement": "remaining binding at 1 µM", "setting": "PIM1", "value": 94, "unit": "%"},
      {"measurement": "remaining binding at 1 µM", "setting": "PIM3", "value": 100, "unit": "%"},
      {"measurement": "remaining binding at 1 µM", "setting": "RAF1", "value": 73, "unit": "%"},
      {"measurement": "remaining binding at 1 µM", "setting": "[2]", "value": 96, "unit": "%"},
      {"measurement": "remaining binding at 1 µM", "setting": "[3]", "value": 80, "unit": "%"},
      {"measurement": "remaining binding at 1 µM", "setting": "TEC", "value": 45, "unit": "%"},
      {"measurement": "remaining binding at 1 µM", "setting": "TNNI3K", "value": 89, "unit": "%"},
      {"measurement": "remaining binding at 1 µM", "setting": "TSSK1B", "value": 95, "unit": "%"},
      {"measurement": "remaining binding at 1 µM", "setting": "[4]", "value": 100, "unit": "%"},
      {"measurement": "remaining binding at 1 µM", "setting": "VEGFR2", "value": 100, "unit": "%"}
    ]}
  ]
}
